# Test results: ChEMBL document CHEMBL5506066, “Potency-Enhanced Peptidomimetic VHL Ligands with Improved Oral Bioavailability” (J Med Chem, 2024)
# Columns and labels:
# [1] = molecular target: T1, von Hippel-Lindau disease tumor suppressor (Homo sapiens, UniProt P40337)
# [2] = molecular target: T1, von Hippel-Lindau disease tumor suppressor; assay: biochemical
# Description: Binding affinity to VHL (unknown origin)-NanoLuc fusion protein expressed in HEK293 cells assessed as apparent dissociation constant incubated for 30 mins in presence of digitonin by NanoBRET assay
# T1 sequence (P40337 whole entry): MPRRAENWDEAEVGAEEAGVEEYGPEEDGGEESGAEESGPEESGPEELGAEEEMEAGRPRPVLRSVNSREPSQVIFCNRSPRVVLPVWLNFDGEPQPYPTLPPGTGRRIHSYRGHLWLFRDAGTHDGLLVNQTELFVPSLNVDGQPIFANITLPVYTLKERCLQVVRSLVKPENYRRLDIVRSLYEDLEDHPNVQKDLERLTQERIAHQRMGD
Kd [1],Kd [2],Compound
26.6 µM,8.9 µM,CSCC[C@H](NC(C)=O)C(=O)N1C[C@H](O)C[C@H]1C(=O)N[C@H](Cc1ccc(-c2ccccc2)cc1)C(N)=O
6.6 µM,2.4 µM,CC(=O)NC(C(=O)N1C[C@H](O)C[C@H]1C(=O)N[C@H](Cc1ccc(-c2ccccc2)cc1)C(N)=O)C12CC(C(F)(F)F)(C1)C2 (stereo not given in full)
14 µM,2.15 µM,CC(=O)N[C@H](C(=O)N1C[C@H](O)C[C@H]1C(=O)N[C@H](C(N)=O)c1ccc(-c2scnc2C)cc1)C(C)(C)C
> 57.5 µM,21.2 µM,COc1ccc(-c2ccc(C[C@@H](NC(=O)[C@@H]3C[C@@H](O)CN3C(=O)[C@@H](NC(C)=O)C(C)(C)C)C(N)=O)cc2)cc1F
31.1 µM,12.9 µM,CC(=O)N[C@@H](CC1CC1)C(=O)N1C[C@H](O)C[C@H]1C(=O)N[C@H](Cc1ccc(-c2ccccc2)cc1)C(N)=O
6.6 µM,2.9 µM,CC(=O)N[C@H](C(=O)N1C[C@H](O)C[C@H]1C(=O)N[C@H](Cc1ccc(-c2ccc(F)cn2)cc1)C(N)=O)C(C)(C)C
> 57.5 µM,> 51.8 µM,CC(=O)NC1(C(=O)N2C[C@H](O)C[C@H]2C(=O)N[C@H](Cc2ccc(-c3ccccc3)cc2)C(N)=O)CCC1
> 57.5 µM,> 51.8 µM,NC(=O)[C@@H](Cc1ccc(-c2ccccc2)cc1)NC(=O)[C@@H]1C[C@@H](O)CN1C(=O)Cc1cccnn1
> 57.5 µM,> 51.8 µM,CC(=O)NC1(C(=O)N2C[C@H](O)C[C@H]2C(=O)N[C@H](Cc2ccc(-c3ccccc3)cc2)C(N)=O)CCCCC1
4.6 µM,3.1 µM,CC(=O)N[C@H](C(=O)N1C[C@H](O)C[C@H]1C(=O)N[C@H](Cc1ccc(-c2ccccc2)cc1)C(N)=O)C(C)(C)c1ccccc1
24.7 µM,32.1 µM,CC(C)[C@@H](C(=O)N1C[C@H](O)C[C@H]1C(=O)N[C@H](Cc1ccc(-c2ccccc2)cc1)C(N)=O)c1cccnc1
> 57.5 µM,> 51.8 µM,CC(=O)NC(C)(C)C(=O)N1C[C@H](O)C[C@H]1C(=O)N[C@H](Cc1ccc(-c2ccccc2)cc1)C(N)=O
25.4 µM,18.6 µM,Cc1cnn([C@H](C(=O)N2C[C@H](O)C[C@H]2C(=O)N[C@H](Cc2ccc(-c3ccccc3)cc2)C(N)=O)C(C)C)c1
> 57.5 µM,> 51.8 µM,CC(=O)N[C@]1(C(=O)N2C[C@H](O)C[C@H]2C(=O)N[C@H](Cc2ccc(-c3ccccc3)cc2)C(N)=O)CC1(C)C
> 57.5 µM,> 51.8 µM,NC(=O)[C@@H](Cc1ccc(-c2ccccc2)cc1)NC(=O)[C@@H]1C[C@@H](O)CN1C(=O)Cc1cccnc1
> 57.5 µM,> 51.8 µM,CC(=O)NCC(=O)N1C[C@H](O)C[C@H]1C(=O)N[C@H](Cc1ccc(-c2ccccc2)cc1)C(N)=O
> 57.5 µM,> 51.8 µM,NC(=O)[C@@H](Cc1ccc(-c2ccccc2)cc1)NC(=O)[C@@H]1C[C@@H](O)CN1C(=O)Cc1cnco1
> 57.5 µM,> 51.8 µM,CC(=O)NC1(C(=O)N2C[C@H](O)C[C@H]2C(=O)N[C@H](Cc2ccc(-c3ccccc3)cc2)C(N)=O)CC1
10.5 µM,4.9 µM,CC(=O)N1CCCC[C@H]1C(=O)N1C[C@H](O)C[C@H]1C(=O)N[C@H](Cc1ccc(-c2ccccc2)cc1)C(N)=O
> 57.5 µM,> 51.8 µM,NC(=O)[C@@H](Cc1ccc(-c2ccccc2)cc1)NC(=O)[C@@H]1C[C@@H](O)CN1C(=O)Cc1ccon1

Kd [1],Kd [2],Compound
> 57.5 µM,48.5 µM,Cc1cn([C@H](C(=O)N2C[C@H](O)C[C@H]2C(=O)N[C@H](Cc2ccc(-c3ccccc3)cc2)C(N)=O)C(C)C)cn1
> 57.5 µM,11.5 µM,CC(=O)N[C@H](C(=O)N1C[C@H](O)C[C@H]1C(=O)N[C@H](Cc1ccc(-c2ccccc2)cc1)C(N)=O)C1CCNCC1
> 57.5 µM,9 µM,CC(=O)N[C@H](C(=O)N1C[C@H](O)C[C@H]1C(=O)N[C@H](Cc1ccc(C#N)cc1)C(N)=O)C(C)(C)C
4.4 µM,2.7 µM,CC(=O)N[C@H](C(=O)N1C[C@H](O)C[C@H]1C(=O)N[C@H](Cc1ccc(-c2ccccc2F)cc1)C(N)=O)C(C)(C)C
> 57.5 µM,> 51.8 µM,NC(=O)[C@@H](Cc1ccc(-c2ccccc2)cc1)NC(=O)[C@@H]1C[C@@H](O)CN1C(=O)Cn1ccnn1
> 57.5 µM,> 51.8 µM,Cc1cc(C2(C(=O)N3C[C@H](O)C[C@H]3C(=O)N[C@H](Cc3ccc(-c4ccccc4)cc3)C(N)=O)CC2)on1
> 57.5 µM,12.7 µM,CC(=O)N1CCC[C@H]1C(=O)N1C[C@H](O)C[C@H]1C(=O)N[C@H](Cc1ccc(-c2ccccc2)cc1)C(N)=O
> 57.5 µM,> 51.8 µM,Cc1ccc(CC(=O)N2C[C@H](O)C[C@H]2C(=O)N[C@H](Cc2ccc(-c3ccccc3)cc2)C(N)=O)cn1
> 57.5 µM,> 51.8 µM,CC(=O)N[C@H](C(=O)N1C[C@H](O)C[C@H]1C(=O)N[C@H](Cc1ccc(C)cc1)C(N)=O)C(C)(C)C
> 57.5 µM,45.7 µM,CC(C)[C@@H](C(=O)N1C[C@H](O)C[C@H]1C(=O)N[C@H](Cc1ccc(-c2ccccc2)cc1)C(N)=O)c1cnn(C)c1
5.5 µM,1.8 µM,CC(=O)N[C@H](C(=O)N1C[C@H](O)C[C@H]1C(=O)N[C@H](Cc1ccc(-c2ccccc2Cl)cc1)C(N)=O)C(C)(C)C
> 57.5 µM,14.2 µM,CC(=O)N[C@@H](Cc1cscn1)C(=O)N1C[C@H](O)C[C@H]1C(=O)N[C@H](Cc1ccc(-c2ccccc2)cc1)C(N)=O
> 57.5 µM,48.6 µM,CC(C)(C)n1nnc(CC(=O)N2C[C@H](O)C[C@H]2C(=O)N[C@H](Cc2ccc(-c3ccccc3)cc2)C(N)=O)n1
6.1 µM,2.6 µM,CC(=O)N[C@H](C(=O)N1C[C@H](O)C[C@H]1C(=O)N[C@H](Cc1ccc(I)cc1)C(N)=O)C(C)(C)C
> 57.5 µM,> 51.8 µM,Cc1cn(CC(=O)N2C[C@H](O)C[C@H]2C(=O)N[C@H](Cc2ccc(-c3ccccc3)cc2)C(N)=O)nn1
> 57.5 µM,30.9 µM,COc1ccc(-c2ccc(C[C@@H](NC(=O)[C@@H]3C[C@@H](O)CN3C(=O)[C@@H](NC(C)=O)C(C)(C)C)C(N)=O)cc2)cc1
> 57.5 µM,4.2 µM,CC(=O)N[C@H](C(=O)N1C[C@H](O)C[C@H]1C(=O)N[C@H](Cc1ccc(-c2cccc(Cl)n2)cc1)C(N)=O)C(C)(C)C
15.4 µM,3.9 µM,CC(=O)N[C@H](C(=O)N1C[C@H](O)C[C@H]1C(=O)N[C@H](Cc1ccc(-c2ccccc2)cc1)C(N)=O)C1(C)CC1
0.68 µM,0.41 µM,CC(=O)N[C@H](C(=O)N1C[C@H](O)C[C@H]1C(=O)N[C@H](Cc1ccc(-c2ccccc2)cc1)C(N)=O)C12CC3CC(CC(C3)C1)C2
17.8 µM,2.9 µM,CC(=O)N[C@H](C(=O)N1C[C@H](O)C[C@H]1C(=O)N[C@H](Cc1ccc(-c2ccccc2)cc1)C(N)=O)C1CCOCC1

Kd [1],Kd [2],Compound
> 57.5 µM,18.1 µM,CC(=O)N[C@@H](Cc1ccccc1)C(=O)N1C[C@H](O)C[C@H]1C(=O)N[C@H](Cc1ccc(-c2ccccc2)cc1)C(N)=O
> 57.5 µM,> 51.8 µM,CC(=O)N[C@@]1(C(=O)N2C[C@H](O)C[C@H]2C(=O)N[C@H](Cc2ccc(-c3ccccc3)cc2)C(N)=O)CC1(C)C
> 57.5 µM,17.3 µM,CC(=O)N[C@@H](CCCN)C(=O)N1C[C@H](O)C[C@H]1C(=O)N[C@H](Cc1ccc(-c2ccccc2)cc1)C(N)=O
> 57.5 µM,> 51.8 µM,CC(=O)N[C@H](C(=O)N1C[C@H](O)C[C@H]1C(=O)N[C@H](Cc1ccc(C(C)(C)C)cc1)C(N)=O)C(C)(C)C
> 57.5 µM,> 51.8 µM,NC(=O)[C@@H](Cc1ccc(-c2ccccc2)cc1)NC(=O)[C@@H]1C[C@@H](O)CN1C(=O)Cc1cncs1
46.9 µM,24.4 µM,Cc1cc(CC(=O)N2C[C@H](O)C[C@H]2C(=O)N[C@H](Cc2ccc(-c3ccccc3)cc2)C(N)=O)on1
1.99 µM,0.21 µM,CC(=O)N[C@H](C(=O)N1C[C@H](O)C[C@H]1C(=O)N[C@@H](C(N)=O)c1ccc(-c2scnc2C)cc1)C(C)(C)C
> 57.5 µM,2.7 µM,CC(=O)N[C@H](C(=O)N1C[C@H](O)C[C@H]1C(=O)N[C@H](Cc1ccc(-c2ccccc2)cc1)C(N)=O)C1CCN(C(C)=O)CC1
12.2 µM,4.3 µM,COc1ccccc1-c1ccc(C[C@@H](NC(=O)[C@@H]2C[C@@H](O)CN2C(=O)[C@@H](NC(C)=O)C(C)(C)C)C(N)=O)cc1
> 57.5 µM,> 51.8 µM,Cc1ncc(CC(=O)N2C[C@H](O)C[C@H]2C(=O)N[C@H](Cc2ccc(-c3ccccc3)cc2)C(N)=O)s1
> 57.5 µM,> 51.8 µM,NC(=O)[C@@H](Cc1ccc(-c2ccccc2)cc1)NC(=O)[C@@H]1C[C@@H](O)CN1C(=O)Cc1ccoc1
> 57.5 µM,> 51.8 µM,Cc1noc(CC(=O)N2C[C@H](O)C[C@H]2C(=O)N[C@H](Cc2ccc(-c3ccccc3)cc2)C(N)=O)n1
> 57.5 µM,47 µM,CC(=O)N[C@H](C(=O)N1C[C@H](O)C[C@H]1C(=O)N[C@H](Cc1ccc(-c2ccccc2)cc1)C(N)=O)C(c1ccccc1)c1ccccc1
46.5 µM,18.6 µM,CSC[C@H](NC(C)=O)C(=O)N1C[C@H](O)C[C@H]1C(=O)N[C@H](Cc1ccc(-c2ccccc2)cc1)C(N)=O
45.2 µM,2.7 µM,CC(=O)N[C@H](C(=O)N1C[C@H](O)C[C@H]1C(=O)N[C@H](Cc1ccc(-c2cccnc2)cc1)C(N)=O)C(C)(C)C
11 µM,3.5 µM,CC(=O)N[C@H](C(=O)N1C[C@H](O)C[C@H]1C(=O)N[C@H](Cc1ccc(-c2ccc(F)c(Cl)c2)cc1)C(N)=O)C(C)(C)C
11.8 µM,2.1 µM,CC(=O)N[C@H](C(=O)N1C[C@H](O)C[C@H]1C(=O)N[C@H](Cc1ccc(-c2ccc(F)cc2)cc1)C(N)=O)C(C)(C)C
> 57.5 µM,> 51.8 µM,NC(=O)[C@@H](Cc1ccc(-c2ccccc2)cc1)NC(=O)[C@@H]1C[C@@H](O)CN1C(=O)Cc1ccccn1
57.5 µM,48 µM,CC(=O)N1CC[C@H]1C(=O)N1C[C@H](O)C[C@H]1C(=O)N[C@H](Cc1ccc(-c2ccccc2)cc1)C(N)=O
> 57.5 µM,> 51.8 µM,CC(=O)N[C@H](C(=O)N1C[C@H](O)C[C@H]1C(=O)N[C@H](Cc1ccccc1)C(N)=O)C(C)(C)C
